Key:
Experiment in all cases: relative viability (nuclei count vs DMSO), 5 days (fraction); higher = more cells survive
CAP-232 = compound: C[C@H]([C@@H](C(=O)N)NC(=O)[C@@H]1CSSC[C@@H](C(=O)N[C@H](C(=O)N[C@@H](C(=O)N[C@H](C(=O)N1)CCCCN)CC2=CNC3=CC=CC=C32)CC4=CC=C(C=C4)O)NC(=O)[C@@H](CC5=CC=CC=C5)N)O [CAP-232]
Method in brief: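 Vehicle-anchored 1536-well plates of lung cancer cell lines, held overnight at 37 °C, were pinned with five library-drug doses (not always all listed) spaced by √10. No medium change followed over the next 5 days, after which the cells were fixed, permeabilised and Hoechst-stained together and imaged at 4×. Nuclei were counted with MetaXpress, and viability is treated-well nuclei over vehicle-well nuclei, taken as a median across plates. Plates passed with control CV below 25% and at least one doubling.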

CAP-232 + Bortezomib = compound: C[C@H]([C@@H](C(=O)N)NC(=O)[C@@H]1CSSC[C@@H](C(=O)N[C@H](C(=O)N[C@@H](C(=O)N[C@H](C(=O)N1)CCCCN)CC2=CNC3=CC=CC=C32)CC4=CC=C(C=C4)O)NC(=O)[C@@H](CC5=CC=CC=C5)N)O [CAP-232] + CC(C)C[C@H](NC(=O)[C@H](Cc1ccccc1)NC(=O)c1cnccn1)B(O)O [Bortezomib] (partner 0.002 µM)
Method in brief: (§1)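 Values are medians from duplicate plates. Each reflects relative viability, defined as the nuclei count of treated wells over that of vehicle wells. Lung cancer cell lines in 1536-well plates were pin-tool dosed one day after seeding with one drug alone or with a fixed anchor-drug dose plus five library-drug doses (not always all listed) in √10 steps, then fixed, stained and imaged at 4× after 5 days.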

CAP-232 + Navitoclax = compound: C[C@H]([C@@H](C(=O)N)NC(=O)[C@@H]1CSSC[C@@H](C(=O)N[C@H](C(=O)N[C@@H](C(=O)N[C@H](C(=O)N1)CCCCN)CC2=CNC3=CC=CC=C32)CC4=CC=C(C=C4)O)NC(=O)[C@@H](CC5=CC=CC=C5)N)O [CAP-232] + CC1(C)CCC(c2ccc(Cl)cc2)=C(CN2CCN(c3ccc(C(=O)NS(=O)(=O)c4ccc(N[C@H](CCN5CCOCC5)CSc5ccccc5)c(S(=O)(=O)C(F)(F)F)c4)cc3)CC2)C1 [Navitoclax] (partner 0.5 µM)
Method in brief: as §1

CAP-232 + Foretinib = compound: C[C@H]([C@@H](C(=O)N)NC(=O)[C@@H]1CSSC[C@@H](C(=O)N[C@H](C(=O)N[C@@H](C(=O)N[C@H](C(=O)N1)CCCCN)CC2=CNC3=CC=CC=C32)CC4=CC=C(C=C4)O)NC(=O)[C@@H](CC5=CC=CC=C5)N)O [CAP-232] + COc1cc2c(Oc3ccc(NC(=O)C4(C(=O)Nc5ccc(F)cc5)CC4)cc3F)ccnc2cc1OCCCN1CCOCC1 [Foretinib] (partner 0.25 µM)
Method in brief: as §1

CAP-232 + Lapatinib = compound: C[C@H]([C@@H](C(=O)N)NC(=O)[C@@H]1CSSC[C@@H](C(=O)N[C@H](C(=O)N[C@@H](C(=O)N[C@H](C(=O)N1)CCCCN)CC2=CNC3=CC=CC=C32)CC4=CC=C(C=C4)O)NC(=O)[C@@H](CC5=CC=CC=C5)N)O [CAP-232] + CS(=O)(=O)CCNCc1ccc(-c2ccc3ncnc(Nc4ccc(OCc5cccc(F)c5)c(Cl)c4)c3c2)o1 [Lapatinib] (partner 2 µM)
Method in brief: as §1

CAP-232 + Pictilisib = compound: C[C@H]([C@@H](C(=O)N)NC(=O)[C@@H]1CSSC[C@@H](C(=O)N[C@H](C(=O)N[C@@H](C(=O)N[C@H](C(=O)N1)CCCCN)CC2=CNC3=CC=CC=C32)CC4=CC=C(C=C4)O)NC(=O)[C@@H](CC5=CC=CC=C5)N)O [CAP-232] + CS(=O)(=O)N1CCN(Cc2cc3nc(-c4cccc5[nH]ncc45)nc(N4CCOCC4)c3s2)CC1 [Pictilisib] (partner 1 µM)
Method in brief: as §1

CAP-232 + Crizotinib = compound: C[C@H]([C@@H](C(=O)N)NC(=O)[C@@H]1CSSC[C@@H](C(=O)N[C@H](C(=O)N[C@@H](C(=O)N[C@H](C(=O)N1)CCCCN)CC2=CNC3=CC=CC=C32)CC4=CC=C(C=C4)O)NC(=O)[C@@H](CC5=CC=CC=C5)N)O [CAP-232] + C[C@@H](Oc1cc(-c2cnn(C3CCNCC3)c2)cnc1N)c1c(Cl)ccc(F)c1Cl [Crizotinib] (partner 1 µM)
Method in brief: as §1

CAP-232 + Linsitinib = compound: C[C@H]([C@@H](C(=O)N)NC(=O)[C@@H]1CSSC[C@@H](C(=O)N[C@H](C(=O)N[C@@H](C(=O)N[C@H](C(=O)N1)CCCCN)CC2=CNC3=CC=CC=C32)CC4=CC=C(C=C4)O)NC(=O)[C@@H](CC5=CC=CC=C5)N)O [CAP-232] + C[C@]1(O)C[C@@H](c2nc(-c3ccc4ccc(-c5ccccc5)nc4c3)c3c(N)nccn32)C1 [Linsitinib] (partner 1 µM)
Method in brief: as §1

CAP-232 + Alpelisib = compound: C[C@H]([C@@H](C(=O)N)NC(=O)[C@@H]1CSSC[C@@H](C(=O)N[C@H](C(=O)N[C@@H](C(=O)N[C@H](C(=O)N1)CCCCN)CC2=CNC3=CC=CC=C32)CC4=CC=C(C=C4)O)NC(=O)[C@@H](CC5=CC=CC=C5)N)O [CAP-232] + Cc1nc(NC(=O)N2CCC[C@H]2C(N)=O)sc1-c1ccnc(C(C)(C)C(F)(F)F)c1 [Alpelisib] (partner 2 µM)
Method in brief: as §1

CAP-232 + Olaparib = compound: C[C@H]([C@@H](C(=O)N)NC(=O)[C@@H]1CSSC[C@@H](C(=O)N[C@H](C(=O)N[C@@H](C(=O)N[C@H](C(=O)N1)CCCCN)CC2=CNC3=CC=CC=C32)CC4=CC=C(C=C4)O)NC(=O)[C@@H](CC5=CC=CC=C5)N)O [CAP-232] + O=C(c1cc(Cc2n[nH]c(=O)c3ccccc23)ccc1F)N1CCN(C(=O)C2CC2)CC1 [Olaparib] (partner 8 µM)
Method in brief: as §1

Q: Which results are given for Calu-6?
A: relative viability (CAP-232; 0.4 µM): 1.12; relative viability (CAP-232; 1.265 µM): 1.02; relative viability (CAP-232; 4 µM): 1.15; relative viability (CAP-232; 12.65 µM): 0.74; relative viability (CAP-232 + Bortezomib; first compound 0.4 µM): 1.16; relative viability (CAP-232 + Bortezomib; first compound 1.265 µM): 1.04; relative viability (CAP-232 + Bortezomib; first compound 4 µM): 0.947; relative viability (CAP-232 + Bortezomib; first compound 12.65 µM): 0.653; relative viability (CAP-232 + Navitoclax; first compound 0.4 µM): 0.963; relative viability (CAP-232 + Navitoclax; first compound 1.265 µM): 0.941; relative viability (CAP-232 + Navitoclax; first compound 4 µM): 0.831; relative viability (CAP-232 + Navitoclax; first compound 12.65 µM): 0.446; relative viability (CAP-232 + Foretinib; first compound 0.4 µM): 0.867; relative viability (CAP-232 + Foretinib; first compound 1.265 µM): 1.02; relative viability (CAP-232 + Foretinib; first compound 4 µM): 0.995; relative viability (CAP-232 + Foretinib; first compound 12.65 µM): 0.561; relative viability (CAP-232 + Lapatinib; first compound 0.4 µM): 1.26; relative viability (CAP-232 + Lapatinib; first compound 1.265 µM): 1.03; relative viability (CAP-232 + Lapatinib; first compound 4 µM): 1.15; relative viability (CAP-232 + Lapatinib; first compound 12.65 µM): 0.664; relative viability (CAP-232 + Pictilisib; first compound 0.4 µM): 0.956; relative viability (CAP-232 + Pictilisib; first compound 1.265 µM): 0.889; relative viability (CAP-232 + Pictilisib; first compound 4 µM): 0.945; relative viability (CAP-232 + Pictilisib; first compound 12.65 µM): 0.585; relative viability (CAP-232 + Crizotinib; first compound 0.4 µM): 0.961; relative viability (CAP-232 + Crizotinib; first compound 1.265 µM): 0.842; relative viability (CAP-232 + Crizotinib; first compound 4 µM): 0.988; relative viability (CAP-232 + Crizotinib; first compound 12.65 µM): 0.555; relative viability (CAP-232 + Linsitinib; first compound 0.4 µM): 1.05; relative viability (CAP-232 + Linsitinib; first compound 1.265 µM): 1.01; relative viability (CAP-232 + Linsitinib; first compound 4 µM): 0.929; relative viability (CAP-232 + Linsitinib; first compound 12.65 µM): 0.988; relative viability (CAP-232 + Alpelisib; first compound 0.4 µM): 1.09; relative viability (CAP-232 + Alpelisib; first compound 1.265 µM): 1.08; relative viability (CAP-232 + Alpelisib; first compound 4 µM): 1; relative viability (CAP-232 + Alpelisib; first compound 12.65 µM): 0.654; relative viability (CAP-232 + Olaparib; first compound 0.4 µM): 0.616; relative viability (CAP-232 + Olaparib; first compound 1.265 µM): 0.542; relative viability (CAP-232 + Olaparib; first compound 4 µM): 0.623; relative viability (CAP-232 + Olaparib; first compound 12.65 µM): 0.394

Q: With EBC-1 as the cell line, how does the relative viability (CAP-232; 0.4 µM) read?
A: Its relative viability is 1.05.

Q: And the relative viability (CAP-232; 1.265 µM)?
A: The relative viability was 0.974.

Q: What about the relative viability (CAP-232; 4 µM) of the same cell line?
A: The relative viability was 1.13.

Q: What about the relative viability (CAP-232; 12.65 µM) of the same cell line?
A: The relative viability was 0.927.

Q: What about the relative viability (CAP-232 + Bortezomib; first compound 0.4 µM) of the same cell line?
A: The relative viability was 0.512.

Q: What about the relative viability (CAP-232 + Bortezomib; first compound 1.265 µM) of the same cell line?
A: Its relative viability is 0.497.

Q: And the relative viability (CAP-232 + Bortezomib; first compound 4 µM)?
A: The relative viability was 0.567.

Q: What about the relative viability (CAP-232 + Bortezomib; first compound 12.65 µM) of the same cell line?
A: The relative viability was 0.475.

Q: And the relative viability (CAP-232 + Navitoclax; first compound 0.4 µM)?
A: The relative viability was 0.315.

Q: And the relative viability (CAP-232 + Navitoclax; first compound 1.265 µM)?
A: Its relative viability is 0.328.

Q: What about the relative viability (CAP-232 + Navitoclax; first compound 4 µM) of the same cell line?
A: Its relative viability is 0.363.

Q: What about the relative viability (CAP-232 + Navitoclax; first compound 12.65 µM) of the same cell line?
A: The relative viability was 0.304.

Q: And the relative viability (CAP-232 + Foretinib; first compound 0.4 µM)?
A: Its relative viability is 0.0884.

Q: What about the relative viability (CAP-232 + Foretinib; first compound 1.265 µM) of the same cell line?
A: Its relative viability is 0.129.

Q: And the relative viability (CAP-232 + Foretinib; first compound 4 µM)?
A: Its relative viability is 0.101.

Q: And the relative viability (CAP-232 + Foretinib; first compound 12.65 µM)?
A: The relative viability was 0.0802.

Q: And the relative viability (CAP-232 + Lapatinib; first compound 0.4 µM)?
A: The relative viability was 0.181.

Q: And the relative viability (CAP-232 + Lapatinib; first compound 1.265 µM)?
A: Its relative viability is 0.228.

Q: What about the relative viability (CAP-232 + Lapatinib; first compound 4 µM) of the same cell line?
A: Its relative viability is 0.194.

Q: What about the relative viability (CAP-232 + Lapatinib; first compound 12.65 µM) of the same cell line?
A: Its relative viability is 0.159.

Q: And the relative viability (CAP-232 + Pictilisib; first compound 0.4 µM)?
A: Its relative viability is 0.363.

Q: And the relative viability (CAP-232 + Pictilisib; first compound 1.265 µM)?
A: Its relative viability is 0.314.

Q: What about the relative viability (CAP-232 + Pictilisib; first compound 4 µM) of the same cell line?
A: Its relative viability is 0.391.

Q: What about the relative viability (CAP-232 + Pictilisib; first compound 12.65 µM) of the same cell line?
A: Its relative viability is 0.286.

Q: And the relative viability (CAP-232 + Crizotinib; first compound 0.4 µM)?
A: The relative viability was 0.194.

Q: What about the relative viability (CAP-232 + Crizotinib; first compound 1.265 µM) of the same cell line?
A: Its relative viability is 0.169.

Q: And the relative viability (CAP-232 + Crizotinib; first compound 4 µM)?
A: The relative viability was 0.178.

Q: And the relative viability (CAP-232 + Crizotinib; first compound 12.65 µM)?
A: The relative viability was 0.11.

Q: What about the relative viability (CAP-232 + Linsitinib; first compound 0.4 µM) of the same cell line?
A: The relative viability was 1.04.

Q: What about the relative viability (CAP-232 + Linsitinib; first compound 1.265 µM) of the same cell line?
A: The relative viability was 0.944.

Q: And the relative viability (CAP-232 + Linsitinib; first compound 4 µM)?
A: The relative viability was 0.904.

Q: And the relative viability (CAP-232 + Linsitinib; first compound 12.65 µM)?
A: Its relative viability is 0.926.

Q: What about the relative viability (CAP-232 + Alpelisib; first compound 0.4 µM) of the same cell line?
A: Its relative viability is 0.876.

Q: What about the relative viability (CAP-232 + Alpelisib; first compound 1.265 µM) of the same cell line?
A: The relative viability was 0.819.

Q: And the relative viability (CAP-232 + Alpelisib; first compound 4 µM)?
A: Its relative viability is 0.846.

Q: What about the relative viability (CAP-232 + Alpelisib; first compound 12.65 µM) of the same cell line?
A: Its relative viability is 0.76.

Q: What about the relative viability (CAP-232 + Olaparib; first compound 0.4 µM) of the same cell line?
A: Its relative viability is 0.773.

Q: What about the relative viability (CAP-232 + Olaparib; first compound 1.265 µM) of the same cell line?
A: Its relative viability is 0.686.

Q: What about the relative viability (CAP-232 + Olaparib; first compound 4 µM) of the same cell line?
A: The relative viability was 0.698.

Q: And the relative viability (CAP-232 + Olaparib; first compound 12.65 µM)?
A: The relative viability was 0.662.
